# Values of other authors as cited in paper PMC9500858 (International Journal of Molecular Sciences, 2022).
# Read-outs that look alike come from different tables or passages of the source.
# Key:
# [1] = 0.005 nmol/rat at 120 min and 0.02 nmol/rat at 30, 60 and 120 min; cited from earlier work
# From the text: (§1) Since hybrid compounds have gained attention due to their potent multifunctional behavior with a more favorable profile in terms of possible side effects, much work devoted to such compounds can be found. PK20 and [Ile^9]PK20, which are hybrid structures encompassing both opioid and neurotensin pharmacophores, although modified, were designed and synthesized to reduce pain.
# [2] = test system: CA1 region of the hippocampus; details: combined administration with NMDA, cited from earlier work
# From the text: as §1
Substance,induced analgesia compared to PK20 [1],extent of damage to the CA1 region of the hippocampus ([2]; dose 25 ng/mL),extent of damage to the CA1 region of the hippocampus ([2]; dose 50 ng/mL),extent of damage to the CA1 region of the hippocampus ([2]; dose 100 ng/mL)
"HELM PEPTIDE1{[Cc1cc(O)cc(C)c1C[C@H](N)C(=O)[*:2]].[dK].F.F.K.K.P.F.I.L}$$$$V2.0 (N-terminus assumed; SMILES CC[C@H](C)[C@H](NC(=O)[C@H](Cc1ccccc1)NC(=O)[C@@H]1CCCN1C(=O)[C@H](CCCCN)NC(=O)[C@H](CCCCN)NC(=O)[C@H](Cc1ccccc1)NC(=O)[C@H](Cc1ccccc1)NC(=O)[C@@H](CCCCN)NC(=O)[C@@H](N)Cc1c(C)cc(O)cc1C)C(=O)N[C@@H](CC(C)C)C(=O)O) [[Ile^9]PK20, analogue of PK20 with Ile instead of Tle at position 9]",significantly lower,–,–,–
"HELM PEPTIDE1{[Cc1cc(O)cc(C)c1C[C@H](N)C(=O)[*:2]].[dK].F.F.K.K.P.F.[CC(C)(C)[C@H](N[*:1])C(=O)[*:2]].L}$$$$V2.0 (N-terminus assumed; SMILES Cc1cc(O)cc(C)c1C[C@H](N)C(=O)N[C@H](CCCCN)C(=O)N[C@@H](Cc1ccccc1)C(=O)N[C@@H](Cc1ccccc1)C(=O)N[C@@H](CCCCN)C(=O)N[C@@H](CCCCN)C(=O)N1CCC[C@H]1C(=O)N[C@@H](Cc1ccccc1)C(=O)N[C@H](C(=O)N[C@@H](CC(C)C)C(=O)O)C(C)(C)C) [PK20, opioid–neurotensin hybrid peptide]",–,1.47% ± 1.20,5.18% ± 2.84,6.82% ± 6.08
